From paper PMC7588595, “Small-molecule active pharmaceutical ingredients of approved cancer therapeutics inhibit human aspartate/asparagine-β-hydroxylase” (Bioorganic & Medicinal Chemistry, 2020) come the findings set out here.

This experiment has as its target T1, human AspH (His6-AspH315–758) (Homo sapiens, UniProt Q12797).
T1 construct: N-Terminally His6-tagged human AspH315–758 (His6-AspH315–758) was produced in Escherichia coli BL21 (DE3) cells; made in house; host or cells: Escherichia coli BL21 (DE3), pET-28a(+) vector
T1 sequence (Q12797 315-758): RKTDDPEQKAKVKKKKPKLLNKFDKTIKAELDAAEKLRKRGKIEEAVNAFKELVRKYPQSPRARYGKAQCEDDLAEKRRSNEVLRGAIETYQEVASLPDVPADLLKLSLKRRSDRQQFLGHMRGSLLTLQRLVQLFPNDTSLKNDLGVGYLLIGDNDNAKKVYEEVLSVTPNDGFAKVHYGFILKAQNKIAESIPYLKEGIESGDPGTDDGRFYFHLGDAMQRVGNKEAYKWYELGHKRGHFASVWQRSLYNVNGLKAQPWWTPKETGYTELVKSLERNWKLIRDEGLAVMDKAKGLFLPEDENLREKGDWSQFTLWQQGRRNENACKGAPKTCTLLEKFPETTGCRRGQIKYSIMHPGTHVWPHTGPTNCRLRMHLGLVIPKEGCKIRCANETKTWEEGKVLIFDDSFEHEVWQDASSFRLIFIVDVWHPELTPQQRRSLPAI
The experiment in a line: SPE-MS AspH inhibition assay (hFX-CP101-119 substrate hydroxylation). The experiment is classed as biochemical. The conditions noted are these: AspH-inhibitor screening; for Plate 1 (% inhibition): 384-well Plate 1; for Plate 1 (% conversion): 384-well Plate 1, substrate conversion; for Plate 1-duplicate (% conversion): substrate conversion.

Structures can show the parent of a compound that is named as a salt.

For the compound `Nc1nc2[nH]cc(CCc3ccc(C(=O)N[C@@H](CCC(=O)[O-])C(=O)[O-])cc3)c2c(=O)[nH]1.O.O.O.O.O.O.O.[Na+].[Na+]` [Pemetrexed, Disodium salt, Heptahydrate], the “Plate 1 (% inhibition)” value came to 6.49%, the “Plate 1 (% conversion)” value amounted to 46.75%, the “Plate 1-duplicate (% inhibition)” value is 6.63% and the “Plate 1-duplicate (% conversion)” value was 48.75%.
In the case of `C[C@H]1C[C@@H]2[C@H]([C@@H](O)C[C@@]3(C)[C@H]2CC[C@]3(O)C(=O)CO)[C@@]2(C)C=CC(=O)C=C12` [Methylprednisolone], the “Plate 1 (% inhibition)” value is 8.67%, the “Plate 1 (% conversion)” value is recorded as 45.75%, the “Plate 1-duplicate (% inhibition)” value is recorded as 6.32% and the “Plate 1-duplicate (% conversion)” value is 48.91%.
Turning to `CC(C)(C#N)c1cc(Cn2cncn2)cc(C(C)(C)C#N)c1` [Anastrozole], the “Plate 1 (% inhibition)” value came to 2.34%, the “Plate 1 (% conversion)” value stood at 48.67%, the “Plate 1-duplicate (% inhibition)” value is 3.84% and the “Plate 1-duplicate (% conversion)” value is 50.14%.
For `CO[C@H]1C[C@@H]2CC[C@@H](C)[C@@](O)(O2)C(=O)C(=O)N2CCCC[C@H]2C(=O)O[C@H]([C@H](C)C[C@@H]2CC[C@@H](O)[C@H](OC)C2)CC(=O)[C@H](C)/C=C(\C)[C@@H](O)[C@@H](OC)C(=O)[C@H](C)C[C@H](C)/C=C/C=C/C=C/1C` [Rapamycin (sirolimus)], in that order: -16.43%, 57.34%, -26.38% and 65.13%.
For `CC1(C)NC(=O)N(c2ccc([N+](=O)[O-])c(C(F)(F)F)c2)C1=O` [Nilutamide], in that order: 4.05%, 47.88%, 4.06% and 50.03%.
On to `N.N.[Cl][Pt][Cl]` [Cisplatin aq], for which the “Plate 1 (% inhibition)” value is recorded as 26.89%, the “Plate 1 (% conversion)” value is listed as 37.33%, the “Plate 1-duplicate (% inhibition)” value came out at 26.45% and the “Plate 1-duplicate (% conversion)” value is 38.92%.
For `CN(C)C(=N)NC(=N)N.Cl` [Metformin hydrochloride aq], in that order: 5.05%, 47.42%, 7.45% and 48.35%.
On the same counts, the results for `N#Cc1ccc(C(c2ccc(C#N)cc2)n2cncn2)cc1` [Letrozole] are 6.85%, 46.59%, 3.67% and 50.22%.
For `Nc1nc(Cl)nc2c1ncn2[C@@H]1O[C@H](CO)[C@@H](O)[C@@H]1F` [Clofarabine], the “Plate 1 (% inhibition)” value stood at 6.71%, the “Plate 1 (% conversion)” value is 46.65%, the “Plate 1-duplicate (% inhibition)” value was found to be 3.66% and the “Plate 1-duplicate (% conversion)” value is listed as 50.22%.
`N#Cc1ccc(COC[C@H]2O[C@@H](n3c(NCc4ccc(Cl)c(Cl)c4)nc4c(N)ncnc43)[C@H](O)[C@@H]2O)cc1` [VER 155008]: the “Plate 1 (% inhibition)” value stood at 10.19%, the “Plate 1 (% conversion)” value was determined as 45.05%, the “Plate 1-duplicate (% inhibition)” value was determined as 7.21% and the “Plate 1-duplicate (% conversion)” value came to 48.47%.
Turning to `Nc1nccc(-c2c(-c3ccc(F)cc3)ncn2C2CCCCC2)n1` [PF670462], the “Plate 1 (% inhibition)” value was determined as 40.03%, the “Plate 1 (% conversion)” value is recorded as 31.27%, the “Plate 1-duplicate (% inhibition)” value stood at 29.89% and the “Plate 1-duplicate (% conversion)” value worked out at 37.22%.
On the same counts, the results for `Cc1ccc(F)c(NC(=O)Nc2ccc(-c3cccc4[nH]nc(N)c34)cc2)c1` [ABT-869_Linifanib] are 24.64%, 38.37%, 34.65% and 34.86%.
For the compound `Nc1cccc2c1CN(C1CCC(=O)NC1=O)C2=O` (stereo not drawn) [Lenalidomide], the “Plate 1 (% conversion)” value worked out at 47.43%, the “Plate 1-duplicate (% inhibition)” value turned out to be 4.54% and the “Plate 1-duplicate (% conversion)” value was determined as 49.79%.
Turning to `Cc1c(Cn2c(C)nc3c(C(=O)O)cc(N4CCOCC4)cc32)cccc1C(F)(F)F` [GSK2636771], the “Plate 1 (% inhibition)” value is recorded as -0.51%, the “Plate 1 (% conversion)” value was 49.98%, the “Plate 1-duplicate (% inhibition)” value was found to be 13.40% and the “Plate 1-duplicate (% conversion)” value is 45.39%.
On the same counts, the results for `COc1c(C)cnc(Cn2cnc3c(Cl)nc(N)nc32)c1C` [BIIB021] are 5.65%, 47.14%, 5.00% and 49.56%.
For `N#CCNC(=O)c1ccc(-c2ccnc(Nc3ccc(N4CCOCC4)cc3)n2)cc1` [CYT-387_Momelotinib], in that order: 5.72%, 47.11%, 4.84% and 49.64%.
For the compound `O=C(O)CC[C@H]1CC[C@@](c2cc(F)ccc2F)(S(=O)(=O)c2ccc(Cl)cc2)CC1` [MK-0752], the “Plate 1 (% inhibition)” value came to 11.87%, the “Plate 1 (% conversion)” value is 44.27%, the “Plate 1-duplicate (% inhibition)” value is given as 9.89% and the “Plate 1-duplicate (% conversion)” value worked out at 47.14%.
For `COc1cc2c(Nc3ccc(Br)cc3F)ncnc2cc1OCC1CCN(C)CC1` [Vandetanib], in that order: -0.26%, 49.87%, 1.85% and 51.12%.
For `NS(=O)(=O)OC[C@@H]1C[C@@H](n2ccc3c(N[C@H]4CCc5ccccc54)ncnc32)C[C@@H]1O` [MLN4924], in that order: 2.38%, 48.65%, -0.45% and 52.27%.
`CO[C@@H](C(=O)N1Cc2[nH]nc(NC(=O)c3ccc(N4CCN(C)CC4)cc3)c2C1)c1ccccc1` [PHA-739358 (Danusertib)]: the “Plate 1 (% inhibition)” value is 4.40%, the “Plate 1 (% conversion)” value amounted to 47.72%, the “Plate 1-duplicate (% inhibition)” value was determined as 1.12% and the “Plate 1-duplicate (% conversion)” value is 51.48%.
For `CC(C)NC[C@@H](C(=O)N1CCN(c2ncnc3c2[C@H](C)C[C@H]3O)CC1)c1ccc(Cl)cc1` [GDC-0068], in that order: -1.30%, 50.35%, 4.48% and 49.82%.
`C=CC(=O)Nc1cc2c(Nc3ccc(F)c(Cl)c3)ncnc2cc1OCCCN1CCOCC1` [Canertinib]: the “Plate 1 (% inhibition)” value was -58.69%, the “Plate 1 (% conversion)” value is listed as 76.85%, the “Plate 1-duplicate (% inhibition)” value is on record as -55.96% and the “Plate 1-duplicate (% conversion)” value amounted to 79.80%.
Regarding `CC(C)C[C@H](NC(=O)[C@@H](COC(C)(C)C)NC(=O)[C@H](Cc1ccc(O)cc1)NC(=O)[C@H](CO)NC(=O)[C@H](Cc1c[nH]c2ccccc12)NC(=O)[C@H](Cc1cnc[nH]1)NC(=O)[C@@H]1CCC(=O)N1)C(=O)N[C@@H](CCCNC(=N)N)C(=O)N1CCC[C@H]1C(=O)NNC(N)=O` [Goserelin acetate], the “Plate 1 (% inhibition)” value is listed as -21.27%, the “Plate 1 (% conversion)” value amounted to 59.57%, the “Plate 1-duplicate (% inhibition)” value was -15.30% and the “Plate 1-duplicate (% conversion)” value worked out at 59.63%.
Consider `COc1cc(Nc2ncc(F)c(Nc3ccc4c(n3)NC(=O)C(C)(C)O4)n2)cc(OC)c1OC` [R406_Tamatinib], for which the “Plate 1 (% inhibition)” value amounted to 11.05%, the “Plate 1 (% conversion)” value stood at 44.65%, the “Plate 1-duplicate (% inhibition)” value turned out to be 0.72% and the “Plate 1-duplicate (% conversion)” value is 51.68%.
On the same counts, the results for `O=C(Nc1cccnc1)N1CCC(Cc2cccc(Oc3ccc(C(F)(F)F)cn3)c2)CC1` [PF-3845] are 5.62%, 47.15%, -12.27% and 58.13%.
For `COc1cccc2c1C(=O)c1c(O)c3c(c(O)c1C2=O)C[C@@](O)(C(C)=O)C[C@@H]3O[C@H]1C[C@H](N)[C@H](O)[C@H](C)O1` [Daunorubicin hydrochloride], the “Plate 1 (% inhibition)” value is -28.45%, the “Plate 1 (% conversion)” value is on record as 62.89%, the “Plate 1-duplicate (% inhibition)” value is on record as -40.01% and the “Plate 1-duplicate (% conversion)” value was 71.89%.
As to `CC(C)(C)NC(=O)[C@H]1CC[C@H]2[C@@H]3CC[C@H]4NC(=O)C=C[C@]4(C)[C@H]3CC[C@]12C` [Finasteride], the “Plate 1 (% inhibition)” value is on record as -3.25%, the “Plate 1 (% conversion)” value was 51.25%, the “Plate 1-duplicate (% inhibition)” value was found to be 5.03% and the “Plate 1-duplicate (% conversion)” value amounted to 49.55%.
On the same counts, the results for `Cc1cccc(-c2nn3c(c2-c2ccnc4ccc(C(N)=O)cc24)CCC3)n1` [LY2157299] are 5.18%, 47.36%, 4.86% and 49.63%.
